Test results reported in the supplement of paper PMC10307832.

Tests used:
Assay in all cases: relative viability (nuclei count vs DMSO), 5 days (fraction); higher = more cells survive
[1] = compound: CC(C)N(CCCNC(=O)Nc1ccc(C(C)(C)C)cc1)C[C@H]1O[C@@H](n2ccc3c(N)ncnc32)[C@H](O)[C@@H]1O + CCNC(=O)c1noc(-c2cc(C(C)C)c(O)cc2O)c1-c1ccc(CN2CCOCC2)cc1 [Luminespib] (partner 0.01 µM)
Procedure, shortened: (§1)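 Lung cancer cell lines in 1536-well plates got either a single drug or a fixed anchor-drug dose together with five library-drug doses (not always all listed) in √10 steps, by pin tool, on the day after seeding. Nuclei were counted after 5 days, and relative viability is the treated-to-vehicle ratio of nuclei counts. Values are medians of duplicate plates.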

[2] = compound: CC(C)N(CCCNC(=O)Nc1ccc(C(C)(C)C)cc1)C[C@H]1O[C@@H](n2ccc3c(N)ncnc32)[C@H](O)[C@@H]1O + Cc1nc(Nc2ncc(C(=O)Nc3c(C)cccc3Cl)s2)cc(N2CCN(CCO)CC2)n1 [Dasatinib] (partner 0.075 µM)
Procedure, shortened: as §1

Shikonin + Lapatinib = compound: CC(C)=CC[C@@H](O)C1=CC(=O)c2c(O)ccc(O)c2C1=O [Shikonin] + CS(=O)(=O)CCNCc1ccc(-c2ccc3ncnc(Nc4ccc(OCc5cccc(F)c5)c(Cl)c4)c3c2)o1 [Lapatinib] (partner 2 µM)
Procedure, shortened: as §1

Shikonin + Navitoclax = compound: CC(C)=CC[C@@H](O)C1=CC(=O)c2c(O)ccc(O)c2C1=O [Shikonin] + CC1(C)CCC(c2ccc(Cl)cc2)=C(CN2CCN(c3ccc(C(=O)NS(=O)(=O)c4ccc(N[C@H](CCN5CCOCC5)CSc5ccccc5)c(S(=O)(=O)C(F)(F)F)c4)cc3)CC2)C1 [Navitoclax] (partner 0.5 µM)
Procedure, shortened: as §1

Cell Line | relative viability ([1]; first compound 0.08 µM) | relative viability ([1]; first compound 0.253 µM) | relative viability ([1]; first compound 2.53 µM) | relative viability ([1]; first compound 8 µM) | relative viability ([2]; first compound 0.08 µM) | relative viability ([2]; first compound 0.253 µM) | relative viability ([2]; first compound 2.53 µM) | relative viability ([2]; first compound 8 µM) | relative viability (Shikonin + Lapatinib; first compound 0.01 µM) | relative viability (Shikonin + Lapatinib; first compound 0.1 µM) | relative viability (Shikonin + Lapatinib; first compound 0.3162 µM) | relative viability (Shikonin + Lapatinib; first compound 1 µM) | relative viability (Shikonin + Navitoclax; first compound 0.01 µM) | relative viability (Shikonin + Navitoclax; first compound 0.1 µM) | relative viability (Shikonin + Navitoclax; first compound 0.3162 µM) | relative viability (Shikonin + Navitoclax; first compound 1 µM) | relative viability ([1]; first compound 0.8 µM) | relative viability ([2]; first compound 0.8 µM)
NCI-H647 | 0.267 | 0.461 | 0.241 | 0.245 | 0.183 | 0.15 | 0.205 | 0.212 | 1.16 | 1.17 | 1.35 | 0.88 | 0.991 | 0.886 | 1.25 | 1.02 | – | –
NCI-H1792 | 0.47 | – | 0.446 | 0.439 | 0.768 | 0.785 | 0.71 | 0.783 | 0.922 | 1.06 | 0.968 | 1.09 | 0.607 | 0.639 | 0.58 | 0.778 | 0.394 | 0.871
NCI-H1650 | 0.207 | 0.218 | 0.208 | 0.226 | 0.347 | 0.379 | 0.275 | 0.349 | 0.758 | 0.819 | 0.684 | 0.757 | 1.3 | 1.24 | 1.05 | 1.07 | – | –
NCI-H2023 | 0.694 | 0.771 | 0.858 | 0.621 | 0.503 | 0.668 | 0.662 | 0.55 | 0.806 | 1.14 | 1.02 | 0.867 | 1.03 | 1.06 | 1.03 | 0.97 | 0.807 | 0.602
LOU-NH91 | 0.381 | 0.328 | 0.333 | 0.368 | 0.572 | 0.579 | 0.553 | 0.529 | 0.802 | 0.839 | 0.811 | 0.823 | 0.662 | 0.646 | 0.736 | 0.664 | 0.283 | 0.485
NCI-H3122 | 0.0976 | 0.0883 | 0.0934 | 0.102 | 0.696 | 0.814 | 0.786 | 0.739 | 0.973 | 1.13 | 1 | 1.04 | 1.03 | 1.09 | 1.05 | 1.09 | 0.117 | 0.559
LCLC-97TM1 | 0.699 | 0.647 | 0.666 | 0.707 | 0.897 | 0.783 | 0.822 | 0.82 | 1.28 | 0.998 | 1.09 | 0.921 | 0.46 | 0.4 | 0.495 | 0.277 | 0.705 | 0.933
PC-14 | 0.109 | 0.24 | 0.175 | 0.181 | 0.223 | 0.292 | 0.247 | 0.275 | 0.334 | 0.342 | 0.329 | 0.326 | 1.05 | 1.1 | 1.23 | 1.02 | 0.213 | 0.233
H3255 | 0.875 | 0.892 | 0.838 | 0.837 | 0.507 | 0.354 | 0.282 | 0.367 | 0.206 | 0.258 | 0.215 | 0.271 | 0.454 | 0.695 | 0.519 | 0.584 | 0.876 | 0.434
SK-MES-1 | 0.693 | 0.723 | 0.872 | 0.717 | 0.348 | 0.355 | 0.475 | 0.316 | 0.543 | 0.509 | 0.514 | 0.463 | 1.25 | 1.19 | 1.29 | 1.29 | 0.929 | 0.356
NCI-H1437 | 1.07 | 1.02 | 1.15 | 1.05 | 0.359 | 0.37 | 0.337 | 0.327 | 0.846 | 0.78 | 0.884 | 0.848 | 1.14 | 1.09 | 1.14 | 1.12 | 1.14 | 0.443
LU99A | 0.234 | 0.277 | 0.317 | 0.222 | 0.477 | 0.381 | 0.597 | 0.479 | 1.1 | 1.32 | 0.881 | 0.891 | 0.924 | 0.88 | 0.833 | 0.766 | 0.253 | 0.679
HCC-827 | 0.625 | 0.573 | 0.599 | 0.688 | 0.286 | 0.44 | 0.311 | 0.423 | 0.166 | 0.17 | 0.191 | 0.19 | 1.02 | 1.08 | 0.99 | 0.998 | – | 0.355
LK-2 | 0.185 | 0.193 | 0.169 | 0.214 | 0.447 | 0.294 | 0.368 | 0.302 | 1.26 | 1.06 | 1.22 | 1.06 | 0.913 | 0.866 | 1.03 | 0.852 | 0.191 | 0.267
BEN | 0.347 | 0.461 | 0.442 | 0.303 | 0.29 | 0.347 | 0.314 | 0.312 | 0.654 | 0.897 | 0.776 | 0.768 | 0.0555 | 0.0688 | 0.0568 | 0.096 | 0.282 | 0.312
NCI-H2347 | 0.578 | 0.321 | 0.371 | 0.555 | 0.305 | 0.305 | 0.296 | 0.293 | 0.981 | 1.01 | 1.08 | 0.913 | 0.775 | 0.73 | 0.781 | 0.798 | 0.245 | 0.326
NCI-H1395 | 0.632 | 0.734 | 0.884 | 0.798 | 0.471 | 0.433 | 0.441 | 0.463 | 0.924 | 1.26 | 0.923 | 0.895 | 1.18 | 1.16 | 1.14 | 1.09 | 0.571 | 0.392
201T | 1.04 | 1.01 | 0.984 | 1.06 | 0.562 | 0.548 | 0.565 | 0.593 | 1.05 | 1.12 | 1.02 | 1.05 | 1.2 | 1.26 | 1.18 | 1.19 | 1.13 | 0.505
